Source: patent publication US12281122B1, “PI3K inhibitors” (Cogent Biosciences, Inc., priority 2023, dated 2025)

Experiments:
[1] = system: T47D (PI3Kα-H1047R) cell line; test: HTRF phospho-AKT(S473) cell assay in T47D cells; format: cell-based, human
Method in brief: (§1)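 T47D (PI3Kα-H1047R; RPMI, 10% FBS, insulin) and SKBR3 (wild-type PI3Kα; McCoy's 5A, 10% FBS) cells treated 2 h at 37 °C with 12-point 1:3 dilutions, top 5 μM and 10 μM respectively, ≤0.5% DMSO. SKBR3 stimulated with 70 ng/ml PDGF-BB for the last 15 min; lysate pAKT(S473) by HTRF, IC50 from curves.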

[2] = system: SKBR3 (PI3Kα-Wild Type) cell line; test: HTRF phospho-AKT(S473) cell assay in SKBR3 cells; format: cell-based, human
Method in brief: as §1

[3] = Homo sapiens; HTRF phospho-AKT(S473), T47D (PI3Kα-H1047R) cells, 2 hours compound incubation
[4] = Homo sapiens, SK-BR-3; HTRF phospho-AKT(S473), SKBR3 (PI3Kα-Wild Type) cells, 2 hours compound incubation, PDGF-BB stimulated
[5] = Homo sapiens; T47D (PI3Kα-H1047R) cells, HTRF phospho-AKT(S473), 2 hours compound incubation
[6] = Homo sapiens, SK-BR-3; SKBR3 (PI3Kα-Wild Type) cells, HTRF phospho-AKT(S473), 2 hours compound incubation, PDGF-BB stimulated

IC50 [1, 3] [nM]	IC50 [2, 4] [nM]	IC50 [1, 5] [nM]	IC50 [2, 6] [nM]	SMILES
250 to 500	≥ 5000			Cc1cc([C@@H](C)Nc2ccc(Cl)nc2C(=O)NS(C)(=O)=O)c2nc(N3CCN(c4cc(C)nc(C)n4)CC3)n(C)c(=O)c2c1 [Compound 617, (R)-6-chloro-3-((1-(2-(4-(2,6-dimethylpyrimidin-4-yl)piperazin-1-yl)-3,6-dimethyl-4-oxo-3,4-dihydroquinazolin-8-yl)ethyl)amino)-N-(methylsulfonyl) picolinamide]
500 to 1000	1000 to 5000			CCn1c(N2Cc3cnn(CC(F)(F)F)c3C2)nc2c([C@@H](C)Nc3ccc(Cl)nc3C(=O)NS(C)(=O)=O)cc(C)cc2c1=O [Compound 733, (R)-6-chloro-3-((1-(3-ethyl-6-methyl-4-oxo-2-(1-(2,2,2-trifluoroethyl)-4,6-dihydropyrrolo[3,4-c]pyrazol-5(1H)-yl)-3,4-dihydroquinazolin-8-yl)ethyl)amino)-N-(methylsulfonyl) picolinamide]
< 250	1000 to 5000			Cc1cc([C@@H](C)Nc2ccc(Cl)nc2C(=O)NS(C)(=O)=O)c2nc(-c3ccc4nn(C)cc4c3C)n(C)c(=O)c2c1 [Compound 798, (R)-6-chloro-3-((1-(2-(2,4-dimethyl-2H-indazol-5-yl)-3,6-dimethyl-4-oxo-3,4-dihydroquinazolin-8-yl)ethyl)amino)-N-(methylsulfonyl) picolinamide]
250 to 500	≥ 5000			Cc1cc([C@@H](C)Nc2ccc(Cl)nc2C(=O)NS(C)(=O)=O)c2nc([C@H]3[C@@H]4CN(c5ccc(C)nc5)C[C@@H]43)n(C)c(=O)c2c1 [Compound 829, 6-chloro-3-(((R)-1-(3,6-dimethyl-2-((1R,5S,6r)-3-(6-methylpyridin-3-yl)-3-azabicyclo[3.1.0]hexan-6-yl)-4-oxo-3,4-dihydroquinazolin-8-yl)ethyl)amino)-N-(methylsulfonyl) picolinamide]
250 to 500	≥ 5000			Cc1cc([C@@H](C)Nc2ccc(Cl)nc2C(=O)NS(C)(=O)=O)c2nc(N3C[C@@H]4C[C@H]3CN4c3ccc(F)cn3)n(C)c(=O)c2c1 [Compound 623, 6-chloro-3-(((R)-1-(2-((1S,4S)-5-(5-fluoropyridin-2-yl)-2,5-diazabicyclo [2.2.1]heptan-2-yl)-3,6-dimethyl-4-oxo-3,4-dihydroquinazolin-8-yl)ethyl)amino)-N-(methylsulfonyl) picolinamide]
< 250	1000 to 5000			Cc1cc([C@@H](C)Nc2ccc(Cl)nc2C(=O)NS(C)(=O)=O)c2nc(N3CCC(c4ccn(C5COC5)n4)CC3)n(C)c(=O)c2c1 [Compound 447, (R)-6-chloro-3-((1-(3,6-dimethyl-2-(4-(1-(oxetan-3-yl)-1H-pyrazol-3-yl)piperidin-1-yl)-4-oxo-3,4-dihydroquinazolin-8-yl)ethyl)amino)-N-(methylsulfonyl) picolinamide]
		< 250	1000 to 5000	Cc1cc([C@@H](C)Nc2ccc(Cl)nc2C(=O)NS(C)(=O)=O)c2nc(N3C[C@@H]4[C@H](C3)[C@H]4c3cn(C)nn3)n(C)c(=O)c2c1 [Compound 387, 6-chloro-3-(((R)-1-(3,6-dimethyl-2-((1R,5S,6R)-6-(1-methyl-1H-1,2,3-triazol-4-yl)-3-azabicyclo[3.1.0]hexan-3-yl)-4-oxo-3,4-dihydroquinazolin-8-yl)ethyl)amino)-N-(methylsulfonyl) picolinamide]
250 to 500	≥ 5000			Cc1cc([C@@H](C)Nc2ccc(Cl)nc2C(=O)NS(C)(=O)=O)c2nc(N3C[C@@H]4[C@H](C3)[C@H]4c3cnn(C4CC4)n3)n(C)c(=O)c2c1 [Compound 559, 6-chloro-3-(((R)-1-(2-((1R,5S,6R)-6-(2-cyclopropyl-2H-1,2,3-triazol-4-yl)-3-azabicyclo[3.1.0]hexan-3-yl)-3,6-dimethyl-4-oxo-3,4-dihydroquinazolin-8-yl)ethyl)amino)-N-(methylsulfonyl) picolinamide]
		< 250	1000 to 5000	CC(=O)N1CCN(c2ccc(-c3nc4c([C@@H](C)Nc5ccc(Cl)nc5C(=O)NS(C)(=O)=O)cc(C)cc4c(=O)n3C)cn2)CC1 [Compound 175, (R)-3-((1-(2-(6-(4-acetylpiperazin-1-yl)pyridin-3-yl)-3,6-dimethyl-4-oxo-3,4-dihydroquinazolin-8-yl)ethyl)amino)-6-chloro-N-(methylsulfonyl) picolinamide]
		< 250	1000 to 5000	Cc1cc([C@@H](C)Nc2ccc(Cl)nc2C(=O)NS(C)(=O)=O)c2nc(N3C[C@H]4C[C@@H]3CN4c3cnn(C)c3)n(C)c(=O)c2c1 [Compound 233, 6-chloro-3-(((R)-1-(3,6-dimethyl-2-((1R,4R)-5-(1-methyl-1H-pyrazol-4-yl)-2,5-diazabicyclo[2.2.1]heptan-2-yl)-4-oxo-3,4-dihydroquinazolin-8-yl)ethyl)amino)-N-(methylsulfonyl) picolinamide]
		250 to 500	≥ 5000	Cc1cc([C@@H](C)Nc2ccc(Cl)nc2C(=O)NS(C)(=O)=O)c2nc(N3CCC(c4nn(C)c(C)c4F)CC3)n(C)c(=O)c2c1 [Compound 421, (R)-6-chloro-3-((1-(2-(4-(4-fluoro-1,5-dimethyl-1H-pyrazol-3-yl)piperidin-1-yl)-3,6-dimethyl-4-oxo-3,4-dihydroquinazolin-8-yl)ethyl)amino)-N-(methylsulfonyl) picolinamide]
		< 250	1000 to 5000	Cc1cc([C@@H](C)Nc2ccc(Cl)nc2C(=O)NS(C)(=O)=O)c2nc(N3CCC(c4cnn(C)c4)CC3)n(C)c(=O)c2c1 [Compound 181, (R)-6-chloro-3-((1-(3,6-dimethyl-2-(4-(1-methyl-1H-pyrazol-4-yl)piperidin-1-yl)-4-oxo-3,4-dihydroquinazolin-8-yl)ethyl)amino)-N-(methylsulfonyl) picolinamide]
< 250	1000 to 5000			Cc1cc([C@@H](C)Nc2ccc(Cl)nc2C(=O)NS(C)(=O)=O)c2nc(-c3ccc(Oc4cnn(C)c4)nc3)n(C)c(=O)c2c1 [Compound 816, (R)-6-chloro-3-((1-(3,6-dimethyl-2-(6-((1-methyl-1H-pyrazol-4-yl)oxy)pyridin-3-yl)-4-oxo-3,4-dihydroquinazolin-8-yl)ethyl)amino)-N-(methylsulfonyl) picolinamide]
500 to 1000	≥ 5000			Cc1cc([C@@H](C)Nc2ccc(Cl)nc2C(=O)NS(C)(=O)=O)c2nc(N3CCC[C@@H](c4cnc(C)nc4)C3)n(C)c(=O)c2c1 (relative stereo) [Compound 645, 6-chloro-3-(((R)-1-(3,6-dimethyl-2-((R*)-3-(2-methylpyrimidin-5-yl)piperidin-1-yl)-4-oxo-3,4-dihydroquinazolin-8-yl)ethyl)amino)-N-(methylsulfonyl) picolinamide]
		250 to 500	≥ 5000	Cc1cc([C@@H](C)Nc2ccc(Cl)nc2C(=O)NS(C)(=O)=O)c2nc(N3CCC[C@@H](Oc4cncnc4)C3)n(C)c(=O)c2c1 [Compound 360, 6-chloro-3-(((R)-1-(3,6-dimethyl-4-oxo-2-((R)-3-(pyrimidin-5-yloxy)piperidin-1-yl)-3,4-dihydroquinazolin-8-yl)ethyl)amino)-N-(methylsulfonyl) picolinamide]
		< 250	1000 to 5000	Cc1cc([C@@H](C)Nc2ccc(Cl)nc2C(=O)NS(C)(=O)=O)c2nc(-c3ccc(N4CCC(O)CC4)nc3)n(C)c(=O)c2c1 [Compound 177, (R)-6-chloro-3-((1-(2-(6-(4-hydroxypiperidin-1-yl)pyridin-3-yl)-3,6-dimethyl-4-oxo-3,4-dihydroquinazolin-8-yl)ethyl)amino)-N-(methylsulfonyl) picolinamide]
250 to 500	≥ 5000			Cc1cc([C@@H](C)Nc2ccc(Cl)nc2C(=O)NS(C)(=O)=O)c2nc(N3CCC(C4=NN(C)C(=O)C4(F)F)CC3)n(C)c(=O)c2c1 [Compound 561, (R)-6-chloro-3-((1-(2-(4-(4,4-difluoro-1-methyl-5-oxo-4,5-dihydro-1H-pyrazol-3-yl)piperidin-1-yl)-3,6-dimethyl-4-oxo-3,4-dihydroquinazolin-8-yl)ethyl)amino)-N-(methylsulfonyl) picolinamide]
		250 to 500	1000 to 5000	Cc1cc([C@@H](C)Nc2ccc(Cl)nc2C(=O)NS(C)(=O)=O)c2nc(-c3ccc(-c4noc(C)n4)nc3)n(C)c(=O)c2c1 [Compound 303, (R)-6-chloro-3-((1-(3,6-dimethyl-2-(6-(5-methyl-1,2,4-oxadiazol-3-yl)pyridin-3-yl)-4-oxo-3,4-dihydroquinazolin-8-yl)ethyl)amino)-N-(methylsulfonyl) picolinamide]
250 to 500	≥ 5000			Cc1cc([C@@H](C)Nc2ccc(Cl)nc2C(=O)NS(C)(=O)=O)c2nc(N3C[C@@H]4C[C@H]3CN4c3ncc(F)cn3)n(C)c(=O)c2c1 [Compound 669, 6-chloro-3-(((R)-1-(2-((1S,4S)-5-(5-fluoropyrimidin-2-yl)-2,5-diazabicyclo [2.2.1]heptan-2-yl)-3,6-dimethyl-4-oxo-3,4-dihydroquinazolin-8-yl)ethyl)amino)-N-(methylsulfonyl) picolinamide]

SMILES	IC50 [1, 3] [nM]	IC50 [2, 4] [nM]	IC50 [1, 5] [nM]	IC50 [2, 6] [nM]
CC(=O)N1CC2CCC(C1)N2c1ccc(-c2nc3c([C@@H](C)Nc4ccc(Cl)nc4C(=O)NS(C)(=O)=O)cc(C)cc3c(=O)n2C)cc1F [Compound 801, 3-(((1R)-1-(2-(4-(3-acetyl-3,8-diazabicyclo[3.2.1]octan-8-yl)-3-fluorophenyl)-3,6-dimethyl-4-oxo-3,4-dihydroquinazolin-8-yl)ethyl)amino)-6-chloro-N-(methylsulfonyl) picolinamide]	< 250	≥ 5000		
